Experimental data as given in ChEMBL document CHEMBL3044915, “Synthesis and Insecticidal Activity of N-(4-Aryloxybenzyl)-pyrazolecarboxamide Derivatives” (1996).

Columns and labels:
Format in all cases: functional
Nephotettix cincticeps [1] = assay: Insecticidal activity against green rice Nephotettix cincticeps (green rice leafhopper) third-instar larvae assessed as mortality at 0.8 ppm applied through spray measured after 4 days; settings: for mortality at 0.8 ppm: Nephotettix cincticeps, 96 h
Nephotettix cincticeps [2] = assay: Insecticidal activity against green rice Nephotettix cincticeps (green rice leafhopper) third-instar larvae assessed as mortality at 3.1 ppm applied through spray measured after 4 days; settings: for mortality at 3.1 ppm: Nephotettix cincticeps, 96 h
Nephotettix cincticeps [3] = assay: Insecticidal activity against green rice Nephotettix cincticeps (green rice leafhopper) third-instar larvae assessed as mortality at 12.5 ppm applied through spray measured after 4 days; settings: 96 h
Nephotettix cincticeps [4] = assay: Insecticidal activity against green rice Nephotettix cincticeps (green rice leafhopper) third-instar larvae assessed as mortality at 50 ppm applied through spray measured after 4 days; settings: 96 h
Tetranychus urticae [5] = assay: Insecticidal activity against Tetranychus urticae (two-spotted spider mite) assessed as mortality at 3.1 ppm
Plutella xylostella [6] = assay: Insecticidal activity against Plutella xylostella (diamondback moth) third-instar larvae in compound treated cabbage leaf assessed as mortality at 12.5 ppm measured after 4 days; settings: 96 h
Tetranychus urticae [7] = assay: Insecticidal activity against Tetranychus urticae (two-spotted spider mite) assessed as mortality at 12.5 ppm
Nilaparvata lugens [8] = assay: Insecticidal activity against Nilaparvata lugens (brown planthopper) third-instar larvae assessed as mortality at 12.5 ppm applied through spray measured after 5 days; settings: 120 h
Myzus persicae [9] = assay: Insecticidal activity against Myzus persicae (green peach aphid) assessed as mortality at 12.5 ppm measured after 4 days; settings: 96 h
Plutella xylostella [10] = assay: Insecticidal activity against Plutella xylostella (diamondback moth) third-instar larvae in compound treated cabbage leaf assessed as mortality at 3.1 ppm measured after 4 days; settings: 96 h
Myzus persicae [11] = assay: Insecticidal activity against Myzus persicae (green peach aphid) assessed as mortality at 0.8 ppm measured after 4 days; settings: 96 h
Nilaparvata lugens [12] = assay: Insecticidal activity against Nilaparvata lugens (brown planthopper) third-instar larvae assessed as mortality at 0.8 ppm applied through spray measured after 5 days; settings: 120 h
Nilaparvata lugens [13] = assay: Insecticidal activity against Nilaparvata lugens (brown planthopper) third-instar larvae assessed as mortality at 3.1 ppm applied through spray measured after 5 days; settings: 120 h
Myzus persicae [14] = assay: Insecticidal activity against Myzus persicae (green peach aphid) assessed as mortality at 3.1 ppm measured after 4 days; settings: 96 h
Plutella xylostella [15] = assay: Insecticidal activity against Plutella xylostella (diamondback moth) third-instar larvae in compound treated cabbage leaf assessed as mortality at 0.8 ppm measured after 4 days; settings: 96 h

Structure (SMILES) | mortality at 3.1 ppm (Nephotettix cincticeps [2]) | mortality at 12.5 ppm (Nephotettix cincticeps [3]) | mortality at 50 ppm (Nephotettix cincticeps [4]) | further results
Cc1nn(C)c(C(=O)NCc2ccc(Oc3ccc(C(F)(F)F)cc3)cc2)c1Cl | 80% | 80% | 100% | mortality at 0.8 ppm (Nephotettix cincticeps [1]): 30%
CC1CCc2c1nn(C)c2C(=O)NCc1ccc(C(C)(C)C)cc1 (stereo unspecified) |  | 30% |  | mortality at 3.1 ppm (Tetranychus urticae [5]): 100%; mortality at 12.5 ppm (Plutella xylostella [6]): 0%; mortality at 12.5 ppm (Tetranychus urticae [7]): 100%; mortality at 12.5 ppm (Nilaparvata lugens [8]): 0%; mortality at 12.5 ppm (Myzus persicae [9]): 0%
CC1CCc2c1nn(C)c2C(=O)NCc1ccc(Oc2ccc(C#N)cc2)cc1 (stereo unspecified) | 0% | 30% |  | mortality at 3.1 ppm (Plutella xylostella [10]): 100%; mortality at 0.8 ppm (Myzus persicae [11]): 0%; mortality at 3.1 ppm (Tetranychus urticae [5]): 100%; mortality at 12.5 ppm (Plutella xylostella [6]): 100%; mortality at 12.5 ppm (Tetranychus urticae [7]): 100%; mortality at 0.8 ppm (Nilaparvata lugens [12]): 80%; mortality at 3.1 ppm (Nilaparvata lugens [13]): 80%; mortality at 3.1 ppm (Myzus persicae [14]): 80%; mortality at 12.5 ppm (Nilaparvata lugens [8]): 100%; mortality at 12.5 ppm (Myzus persicae [9]): 100%; mortality at 0.8 ppm (Plutella xylostella [15]): 30%
CC1CCc2c1nn(C)c2C(=O)NC(C)(C)c1ccc(Oc2ccc(C(F)(F)F)cc2)cc1 (stereo unspecified) |  |  | 0% | 
CC(C)c1nn(C)c(C(=O)NCc2ccc(Oc3ccc(C(F)(F)F)cc3)cc2)c1Cl | 30% | 80% | 80% | 
Cn1nc2c(c1C(=O)NCc1ccc(Oc3ccc(C(F)(F)F)cc3)cc1)CCC2 | 100% | 100% | 100% | mortality at 0.8 ppm (Nephotettix cincticeps [1]): 0%
CCC1CCc2c1nn(C)c2C(=O)NCc1ccc(Oc2ccc(C(F)(F)F)cc2)cc1 (stereo unspecified) | 30% | 100% | 100% | mortality at 0.8 ppm (Nephotettix cincticeps [1]): 0%
Cn1nc2c(c1C(=O)NCc1ccc(Oc3ccc(C(F)(F)F)cc3)cc1)CCCC2 | 80% | 80% | 100% | mortality at 0.8 ppm (Nephotettix cincticeps [1]): 0%
CC1CCCc2c1nn(C)c2C(=O)NCc1ccc(Oc2ccc(C(F)(F)F)cc2)cc1 (stereo unspecified) | 0% | 100% | 100% | mortality at 0.8 ppm (Nephotettix cincticeps [1]): 0%
CCc1nn(C)c(C(=O)NCc2ccc(Oc3ccc(C(F)(F)F)cc3)cc2)c1Br | 30% | 100% | 100% | mortality at 0.8 ppm (Nephotettix cincticeps [1]): 30%
CCc1nn(C)c(C(=O)NCc2ccc(Oc3ccc(C(F)(F)F)cc3)cc2)c1F | 30% | 100% | 100% | mortality at 0.8 ppm (Nephotettix cincticeps [1]): 0%
CCc1cc(C(=O)NCc2ccc(Oc3ccc(C(F)(F)F)cc3)cc2)n(C)n1 | 30% | 100% | 100% | 
Cn1ncc(Cl)c1C(=O)NCc1ccc(Oc2ccc(C(F)(F)F)cc2)cc1 | 30% | 80% | 100% | 
CCc1nn(C)c(C(=O)NCc2ccc(Oc3ccc([N+](=O)[O-])cc3)cc2)c1Cl | 100% | 100% | 100% | 
CCc1nn(C)c(C(=O)NCc2ccc(Oc3ccc(C#N)cc3)cc2)c1Cl | 0% | 100% | 100% | 
CCc1nn(C)c(C(=O)NCc2ccc(Oc3ccc(C(F)(F)F)cc3)cc2)c1Cl | 30% | 100% | 100% | 
CCc1nn(C)c(C(=O)NCc2ccc(Oc3ccc(C(F)F)cc3)cc2)c1Cl | 100% | 100% | 100% | 
CCc1nn(C)c(C(=O)NCc2ccc(Oc3ccc(S(C)(=O)=O)cc3)cc2)c1Cl | 30% | 100% | 100% | 
CCc1nn(C)c(C(=O)NCc2ccc(Oc3ccc([S+](C)[O-])cc3)cc2)c1Cl (stereo unspecified) | 30% | 100% | 100% | 

Structure (SMILES) | mortality at 3.1 ppm (Nephotettix cincticeps [2]) | mortality at 12.5 ppm (Nephotettix cincticeps [3]) | mortality at 50 ppm (Nephotettix cincticeps [4]) | further results
CCc1nn(C)c(C(=O)NCc2ccc(Oc3ccc(SC(C)C)cc3)cc2)c1Cl | 30% | 30% | 100% | 
CCSc1ccc(Oc2ccc(CNC(=O)c3c(Cl)c(CC)nn3C)cc2)cc1 | 30% | 80% | 100% | 
CCc1nn(C)c(C(=O)NCc2ccc(Oc3ccc(SC)cc3)cc2)c1Cl | 80% | 100% | 100% | 
CCc1nn(C)c(C(=O)NCc2ccc(Oc3ccc(Cl)cc3)cc2)c1Cl | 80% | 80% | 100% | 
CCc1nn(C)c(C(=O)NCc2ccc(Oc3ccc(OCC(F)(F)F)cc3)cc2)c1Cl |  | 30% | 100% | 
CCc1nn(C)c(C(=O)NCc2ccc(Oc3ccc(OC(F)F)cc3)cc2)c1Cl | 80% | 100% | 100% | 
CCc1nn(C)c(C(=O)NCc2ccc(Oc3ccc(OC)cc3)cc2)c1Cl | 30% | 100% | 100% | 
CCc1nn(C)c(C(=O)NCc2ccc(Oc3ccc(OC(C)C)cc3)cc2)c1Cl | 0% | 30% | 80% | 
CCc1nn(C)c(C(=O)NCc2ccc(Oc3ccc(CC(C)C)cc3)cc2)c1Cl |  |  | 0% | 
CCc1ccc(Oc2ccc(CNC(=O)c3c(Cl)c(CC)nn3C)cc2)cc1 | 30% | 80% | 100% | 
CCc1nn(C)c(C(=O)NCc2ccc(Oc3ccc(C(C)C)cc3)cc2)c1Cl |  | 30% | 80% | 
CCc1nn(C)c(C(=O)NCc2ccc(Oc3ccccc3)cc2)c1Cl |  | 30% | 100% | 
CC1CCc2c1nn(C)c2C(=O)NCc1ccc(Oc2ccc(C(F)(F)F)cc2)cc1 (racemic) |  |  |  | mortality at 3.1 ppm (Plutella xylostella [10]): 80%; mortality at 0.8 ppm (Myzus persicae [11]): 100%; mortality at 3.1 ppm (Tetranychus urticae [5]): 100%; mortality (Nephotettix cincticeps [1]): 30%; mortality at 12.5 ppm (Plutella xylostella [6]): 100%; mortality at 12.5 ppm (Tetranychus urticae [7]): 100%; mortality at 0.8 ppm (Nilaparvata lugens [12]): 100%; mortality at 3.1 ppm (Nilaparvata lugens [13]): 100%; mortality at 3.1 ppm (Myzus persicae [14]): 100%; mortality at 12.5 ppm (Nilaparvata lugens [8]): 100%; mortality at 12.5 ppm (Myzus persicae [9]): 100%; mortality at 0.8 ppm (Plutella xylostella [15]): 0%
CC1CCc2c1nn(C)c2C(=O)NCc1ccc(Oc2ccc(C(F)(F)F)cc2)cc1 (single isomer, unassigned; (+)) |  |  |  | mortality (Nephotettix cincticeps [2]): 30%
CC1CCc2c1nn(C)c2C(=O)NCc1ccc(Oc2ccc(C(F)(F)F)cc2)cc1 (single isomer, unassigned; (-)) |  | 100% | 100% | mortality (Nephotettix cincticeps [1]): 80%; mortality (Nephotettix cincticeps [2]): 100%
CC1CCc2c1nn(C)c2C(=O)NC(C)c1ccc(Oc2ccc(C(F)(F)F)cc2)cc1 (single isomer, unassigned; diastereomer 2) | 80% | 100% | 100% | mortality at 0.8 ppm (Nephotettix cincticeps [1]): 0%
CCc1nn(C)c(C(=O)NCc2ccc(C(C)(C)C)cc2)c1Cl [TEBUFENPYRAD] |  | 0% |  | mortality at 3.1 ppm (Tetranychus urticae [5]): 100%; mortality at 12.5 ppm (Plutella xylostella [6]): 0%; mortality at 12.5 ppm (Tetranychus urticae [7]): 100%; mortality at 12.5 ppm (Nilaparvata lugens [8]): 0%; mortality at 12.5 ppm (Myzus persicae [9]): 30%
CCc1nn(C)c(C(=O)NCc2ccc(Oc3ccc(C)cc3)cc2)c1Cl [TOLFENPYRAD] | 30% | 100% | 100% | 
